The source of these data is patent US11987588B2, “Modulators of the beta-3 adrenergic receptor useful for the treatment or prevention of heart failure and disorders related thereto” (Arena Pharmaceuticals, Inc., priority 2017, dated 2024).

Chain of Beta-3 Adrenergic Receptor (P13945 whole entry, species assumed): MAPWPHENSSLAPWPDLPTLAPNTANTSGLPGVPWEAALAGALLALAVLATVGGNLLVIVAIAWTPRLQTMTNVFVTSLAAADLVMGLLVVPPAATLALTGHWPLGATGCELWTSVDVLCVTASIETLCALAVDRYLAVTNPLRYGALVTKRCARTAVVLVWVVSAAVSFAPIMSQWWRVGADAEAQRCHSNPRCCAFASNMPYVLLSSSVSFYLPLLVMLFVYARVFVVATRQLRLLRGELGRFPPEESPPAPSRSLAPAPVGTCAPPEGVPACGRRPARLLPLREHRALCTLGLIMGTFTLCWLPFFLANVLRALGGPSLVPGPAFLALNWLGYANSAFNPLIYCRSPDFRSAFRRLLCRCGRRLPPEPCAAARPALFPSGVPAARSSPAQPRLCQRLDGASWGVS

The target of the test is Beta-3 Adrenergic Receptor (Homo sapiens (Human), UniProt P13945). Kind of test: Homogeneous Time-Resolved Fluorescence (HTRF) cAMP antagonist assay, IC50 determination. It counts as cell-based. The note with it: CHO-K1 cells stably expressing recombinant receptor, isoproterenol at EC90. The essentials:
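Antagonist mode: isoproterenol at its predetermined EC90 added after compound to recombinant CHO-K1 cells in IBMX-containing PBS, 1 h, room temperature. Compounds tested as 5-fold, 10-point dilutions, top final typically 10 or 100 μM. HTRF signal converted to cAMP via standard curve, giving IC50.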
(In general: In TR-FRET formats the signal depends on donor and acceptor labels being close together.)
A word on the IC50: it is the concentration needed to halve the response being measured. Turning to `CNS(=O)(=O)c1cccc(OC[C@@H](O)CNC2COC3(CCN(S(=O)(=O)c4ccc5c(ccn5C)c4)CC3)C2)c1` (stereo partly drawn) [Compound 221, 3-((2S)-2-hydroxy-3-(8-(1-methyl-1H-indol-5-ylsulfonyl)-1-oxa-8-azaspiro[4.5]decan-3-ylamino)propoxy)-N-methylbenzenesulfonamide], the IC50 turned out to be 9.58 nM.
For the compound `CNS(=O)(=O)c1cccc(OC[C@@H](O)CNC2COC3(CCN(S(=O)(=O)c4ccccc4-c4ccccc4)CC3)C2)c1` (stereo partly drawn) [Compound 174, 3-((2S)-3-(8-(biphenyl-2-ylsulfonyl)-1-oxa-8-azaspiro[4.5]decan-3-ylamino)-2-hydroxypropoxy)-N-methylbenzenesulfonamide], the half-inhibitory concentration (IC50) turned out to be 125 nM.
For the compound `CNS(=O)(=O)c1cccc(OC[C@@H](O)CNC2COC3(CCN(S(=O)(=O)c4cccc(-c5ccc(CNCC(C)C)cc5)c4)CC3)C2)c1` (stereo partly drawn) [Compound 319, 3-((2S)-2-hydroxy-3-(8-(4′-((isobutylamino)methyl)biphenyl-3-ylsulfonyl)-1-oxa-8-azaspiro[4.5]decan-3-ylamino)propoxy)-N-methylbenzenesulfonamide], the IC50 is 34.3 nM.
As to `CNS(=O)(=O)c1cccc(OC[C@@H](O)CNC2COC3(CCN(S(=O)(=O)c4ccc(N5CCCCC5)nc4)CC3)C2)c1` (stereo partly drawn) [Compound 421, 3-((2S)-2-hydroxy-3-(8-(6-(piperidin-1-yl)pyridin-3-ylsulfonyl)-1-oxa-8-azaspiro[4.5]decan-3-ylamino)propoxy)-N-methylbenzenesulfonamide], the IC50 was determined as 16.9 nM.
Turning to `CNS(=O)(=O)c1cccc(OC[C@@H](O)CN[C@H]2COC3(CCN(S(=O)(=O)c4cnc5c(c4)N(C)CC(C)(C)O5)CC3)C2)c1` [Compound 473, 3-((S)-2-hydroxy-3-((R)-8-(1,3,3-trimethyl-2,3-dihydro-1H-pyrido[2,3-b][1,4]oxazin-7-ylsulfonyl)-1-oxa-8-azaspiro[4.5]decan-3-ylamino)propoxy)-N-methylbenzenesulfonamide], the concentration for half-maximal inhibition (IC50) came to 59.2 nM.
Regarding `CNS(=O)(=O)c1cccc(OC[C@@H](O)CN[C@H]2COC3(CCN(S(=O)(=O)c4cnc5c(c4)CCCC5)CC3)C2)c1` [Compound 479, 3-((S)-2-hydroxy-3-((R)-8-(5,6,7,8-tetrahydroquinolin-3-ylsulfonyl)-1-oxa-8-azaspiro[4.5]decan-3-ylamino)propoxy)-N-methylbenzenesulfonamide], the IC50 came to 32.1 nM.
Turning to `CCCc1cnc(N2CCC3(CC2)C[C@@H](NC[C@H](O)COc2cccc(S(=O)(=O)NC)c2)CO3)nc1` [Compound 579, 3-((S)-2-hydroxy-3-((R)-8-(5-propylpyrimidin-2-yl)-1-oxa-8-azaspiro[4.5]decan-3-ylamino)propoxy)-N-methylbenzenesulfonamide], the half-inhibitory concentration (IC50) came out at 340 nM.
Regarding `C[C@H](CO)NS(=O)(=O)c1cccc(OC[C@@H](O)CNC2COC3(CCN(S(=O)(=O)c4ccc5ccccc5c4)CC3)C2)c1` (stereo partly drawn) [Compound 96, 3-((2S)-2-hydroxy-3-(8-(naphthalen-2-ylsulfonyl)-1-oxa-8-azaspiro[4.5]decan-3-ylamino)propoxy)-N—((R)-1-hydroxypropan-2-yl)benzenesulfonamide], the half-inhibitory concentration (IC50) stood at 42.1 nM.
The value for `CC(C)(CO)NS(=O)(=O)c1cccc(OC[C@@H](O)CNC2COC3(CCN(S(=O)(=O)c4ccc5ccccc5c4)CC3)C2)c1` (stereo partly drawn) [Compound 49, N-(1-hydroxy-2-methylpropan-2-yl)-3-((2S)-2-hydroxy-3-(8-(naphthalen-2-ylsulfonyl)-1-oxa-8-azaspiro[4.5]decan-3-ylamino)propoxy)benzenesulfonamide] was 107 nM.
As to `CNS(=O)(=O)c1cccc(OC[C@@H](O)CN[C@@H]2COC3(CCN(S(=O)(=O)c4cnn(-c5ccccc5)c4C)CC3)C2)c1` [Compound 280, 3-((S)-2-hydroxy-3-((S)-8-(5-methyl-1-phenyl-1H-pyrazol-4-ylsulfonyl)-1-oxa-8-azaspiro[4.5]decan-3-ylamino)propoxy)-N-methylbenzenesulfonamide], the IC50 worked out at 98 nM.
As to `CONS(=O)(=O)c1cccc(OC[C@@H](O)CN[C@H]2COC3(CCN(S(=O)(=O)c4cnc5c(c4)N(C)CCO5)CC3)C2)c1` [Compound 451, 3-((S)-2-hydroxy-3-((R)-8-(1-methyl-2,3-dihydro-1H-pyrido[2,3-b][1,4]oxazin-7-ylsulfonyl)-1-oxa-8-azaspiro[4.5]decan-3-ylamino)propoxy)-N-methoxybenzenesulfonamide], the concentration for half-maximal inhibition (IC50) is 2130 nM.
Turning to `CNS(=O)(=O)c1cccc(OC[C@@H](O)CN[C@H]2COC3(CCN(S(=O)(=O)c4ccc5c(c4)C(=O)C(=O)N5)CC3)C2)c1` [Compound 498, 3-((S)-3-((R)-8-(2,3-dioxoindolin-5-ylsulfonyl)-1-oxa-8-azaspiro[4.5]decan-3-ylamino)-2-hydroxypropoxy)-N-methylbenzenesulfonamide], the half-maximal inhibitory concentration (IC50) turned out to be 117 nM.
For `CN(C)S(=O)(=O)c1cccc(OC[C@@H](O)CNC2COC3(CCN(S(=O)(=O)c4ccc(CN)cc4)CC3)C2)c1` (stereo partly drawn) [Compound 290, 3-((2S)-3-(8-(4-(aminomethyl)phenylsulfonyl)-1-oxa-8-azaspiro[4.5]decan-3-ylamino)-2-hydroxypropoxy)-N,N-dimethylbenzenesulfonamide], the IC50 was found to be 175 nM.
Take `CNS(=O)(=O)c1cccc(OC[C@@H](O)CN[C@H]2COC3(CCN(S(=O)(=O)c4cnc5ccccc5c4)CC3)C2)c1` [Compound 336, 3-((S)-2-hydroxy-3-((R)-8-(quinolin-3-ylsulfonyl)-1-oxa-8-azaspiro[4.5]decan-3-ylamino)propoxy)-N-methylbenzenesulfonamide]: the half-inhibitory concentration (IC50) stood at 15.3 nM.
`CNS(=O)(=O)c1cccc(OC[C@@H](O)CN[C@H]2COC3(CCN(S(=O)(=O)c4cc5nc[nH]c5nc4C)CC3)C2)c1` [Compound 516, 3-((S)-2-hydroxy-3-((R)-8-(5-methyl-3H-imidazo[4,5-b]pyridin-6-ylsulfonyl)-1-oxa-8-azaspiro[4.5]decan-3-ylamino)propoxy)-N-methylbenzenesulfonamide]: the 50% inhibitory concentration (IC50) was 166 nM.
The value for `CNS(=O)(=O)c1cccc(OC[C@@H](O)CNC2COC3(CCN(S(=O)(=O)c4cccc(-c5ccsc5)c4)CC3)C2)c1` (stereo partly drawn) [Compound 66, 3-((2S)-2-hydroxy-3-(8-(3-(thiophen-3-yl)phenylsulfonyl)-1-oxa-8-azaspiro[4.5]decan-3-ylamino)propoxy)-N-methylbenzenesulfonamide] was 22.7 nM; that for `CNS(=O)(=O)c1cccc(OC[C@@H](O)CNC2COC3(CCN(S(=O)(=O)c4ccn(C)n4)CC3)C2)c1` (stereo partly drawn) [Compound 193, 3-((2S)-2-hydroxy-3-(8-(1-methyl-1H-pyrazol-3-ylsulfonyl)-1-oxa-8-azaspiro[4.5]decan-3-ylamino)propoxy)-N-methylbenzenesulfonamide] was 54.8 nM.
On to `CNS(=O)(=O)c1cccc(OC[C@@H](O)CNC2COC3(CCN(S(=O)(=O)c4cc(C)ccc4OC)CC3)C2)c1` (stereo partly drawn) [Compound 176, 3-((2S)-2-hydroxy-3-(8-(2-methoxy-5-methylphenylsulfonyl)-1-oxa-8-azaspiro[4.5]decan-3-ylamino)propoxy)-N-methylbenzenesulfonamide], for which the 50% inhibitory concentration (IC50) was found to be 23.3 nM.
